The values below are quoted from earlier work in PMC8497432 (ChemMedChem, 2021).

For this data set the following is noted: ref 6f.

As for UNC3866, the cell permeability result was “approximately 5%”.
